# Assay results: the supplement of paper PMC11208160
# Assay: recombinant barcode read abundance after kanamycin selection (control-corrected) (log10(CPM+1)); higher = more efficient recombination; sequences stand for … in AGTGCAGAGAAAATCGGCCAGTTTTCTCTGCCTGCAGTCCGCATGCCGT…AGATTTATGCAGCGGACTGCCTTTCTCCCAAAGTGATAAACCGGACAGTATCATGGACCGGTTTTCCCGGTAATCCGTATTTGCAAGGTTGGTTTCACT; site = the 11-nt target
# How it was run: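 Oligos holding a promoter, target, barcode and the J23119-driven first 104 bases of the bridge RNA were Gibson-cloned into a vector that supplied the other 73 bp plus a T7-inducible recombinase. This library was co-electroporated with a donor plasmid into E. coli. Two replicates went on chloramphenicol/ampicillin LB agar (control) and two on chloramphenicol/ampicillin/kanamycin with 0.1 mM IPTG. Recombination efficiency is read from averaged, control-corrected barcode counts per million at recombinant junctions, reported as log10(CPM+1).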
# 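Also: IS621 recombinase and bridge RNA in Escherichia coli cells.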
row,Sequence,recombinant barcode read abundance (log10)
1,ACCTACCCTTGGGTTCTAACCTGTTGCCT (site ACCTACCCTAG),1.14
2,CGTCGTACTTGGGTTCTAACCTGTTGCCT (site CGGCGTACTAG),0.0235
3,GGCCTGCCTTGGGTTCTAACCTGTTGCCT (site GGCCTGCCTAG),1.31
4,AAGTTTCCTTGGGTTCTAACCTGTTGCAT (site AAGTGTCCTAT),0.118
5,GTACGCGCTTGGGTTCTAACCTGTTGCGT (site GTACGCGCTAC),1.14
6,CTCTACTCTTGGGTTCTAACCTGTTGCGT (site TGACCTACTTG),0.0348
7,ATATGTACTTGGGTTCTAACCTGTTGCCA (site ATATGTACTCG),0.22
8,TTATCTCCTTGGGTTCTAACCTGTTGCTT (site TTATCTCCTAA),0.205
9,TAGGCTCCTTGGGTTCTAACCTGTTGCAA (site TAGGCTCCTGT),0
10,GTTTGCTCTTGGGTTCTAACCTGTTGCCT (site GTTTGATCTAG),0.0882
11,AGGAACCCTTGGGTTCTAACCTGTTGCTC (site AGGAACCCTTA),0.0757
12,AGTTGCACTTGGGTTCTAACCTGTTGCCT (site AGTTGCACTAG),0.423
13,GGGAAGACTTGGGTTCTAACCTGTTGCCT (site GGCAAGACTAG),0.0845
14,GCCACTCCTTGGGTTCTAACCTGTTGCGT (site GTCAATCCTAC),0.185
15,TGTAGCACTTGGGTTCTAACCTGTTGCAC (site TGTCGCACTCT),0.159
16,CAGTCTACTTGGGTTCTAACCTGTTGCCT (site CGGTCTACTAG),0.132
17,GCGTACCCTTGGGTTCTAACCTGTTGCCT (site GTGTACCCTAG),0.0662
18,CACAGACCTTGGGTTCTAACCTGTTGCCT (site CACAGACCTAG),1.47
19,CAGCGGTCTTGGGTTCTAACCTGTTGCGA (site TTATACACTCT),0.0232
20,ACCCGTCCTTGGGTTCTAACCTGTTGCAG (site GGCCGTCCTCT),0.051
21,TTCAAAACTTGGGTTCTAACCTGTTGCCT (site TTCAAATCTAG),0.0229
22,TACATCCCTTGGGTTCTAACCTGTTGCCC (site TACATCCCTCG),0.111

row,Sequence,recombinant barcode read abundance (log10)
1,CTATCGACTTGGGTTCTAACCTGTTGCCT (site CTATTGACTAG),0.0575
2,GGGCTCCCTTGGGTTCTAACCTGTTGCCG (site GGGCTCCCTCG),1.92
3,GAGCAGGCTTGGGTTCTAACCTGTTGCTT (site AGTTCTCCTCG),0.196
4,GCGCTTACTTGGGTTCTAACCTGTTGCCT (site GGGCTTACTAG),0.0205
5,TCGGAGGCTTGGGTTCTAACCTGTTGCTG (site TCAGAGGCTCA),0.774
6,TGGTACCCTTGGGTTCTAACCTGTTGCCT (site TGGTACCCTAG),1.64
7,TATTATACTTGGGTTCTAACCTGTTGCTT (site TATTATACTAA),0.0915
8,CCGGACCCTTGGGTTCTAACCTGTTGCCT (site GCGGACGCTAG),0.232
9,ACAGTACCTTGGGTTCTAACCTGTTGCTG (site TAGCCCTCTTT),0.204
10,GCTCATGCTTGGGTTCTAACCTGTTGCCT (site GCTCATTCTAG),0.132
11,TAGGCGCCTTGGGTTCTAACCTGTTGCGT (site TAGGCGCCTAG),0.0904
12,AGTAGGACTTGGGTTCTAACCTGTTGCCT (site CGTAGGACTAG),0
13,AGATCTCCTTGGGTTCTAACCTGTTGCGT (site AGATCTCCTAC),0.777
14,GGTCCGTCTTGGGTTCTAACCTGTTGCAT (site GGTCCGTCTAT),1.16
15,TTACCGACTTGGGTTCTAACCTGTTGCCT (site TTACCCACTAG),0.242
16,CCACGGACTTGGGTTCTAACCTGTTGCCT (site CCAGGGACTAG),0.129
17,AGACGTCCTTGGGTTCTAACCTGTTGCTT (site AGACGTCCTAA),1.03
18,GCAAGGTCTTGGGTTCTAACCTGTTGCAT (site CGTTCTCCTTA),0.18
19,GGTAAGACTTGGGTTCTAACCTGTTGCCT (site GGCAAGACTAG),0.318
20,TCCAGTACTTGGGTTCTAACCTGTTGCTT (site TCCGGTACTAA),0.0788
21,TAATCGACTTGGGTTCTAACCTGTTGCCT (site TAATCGACTAG),0.102
22,AGAATCCCTTGGGTTCTAACCTGTTGCAT (site AGAATCCCTAT),1.49

row,Sequence,recombinant barcode read abundance (log10)
1,CGTCGCACTTGGGTTCTAACCTGTTGCCT (site CATCGCACTAG),0.234
2,TACCCGACTTGGGTTCTAACCTGTTGCCT (site TACCGGACTAG),0.178
3,TTCTGTGCTTGGGTTCTAACCTGTTGCCT (site TTCTGTGCTAG),0.0428
4,TAAATAGCTTGGGTTCTAACCTGTTGCCT (site TAATTAGCTAG),0.243
5,AAGTCGTCTTGGGTTCTAACCTGTTGCCT (site ACGTCGTCTAG),0.0906
6,TGAGAACCTTGGGTTCTAACCTGTTGCCT (site GGAGAACCTAG),0.118
7,GCTTGAGCTTGGGTTCTAACCTGTTGCCT (site GCTTGAGCTAG),0.589
8,AGAGGACCTTGGGTTCTAACCTGTTGCCT (site AGAGGACCTAG),2.32
9,GTCGTACCTTGGGTTCTAACCTGTTGCCT (site GTCCTACCTAG),0.0361
10,CGGACTTCTTGGGTTCTAACCTGTTGCCT (site CTGACTTCTAG),0.0412
11,TCGCGGCCTTGGGTTCTAACCTGTTGCCT (site TCGCGGCCTAG),0.0408
12,GAAACGGCTTGGGTTCTAACCTGTTGCCT (site GAAATGGCTAG),0.323
13,TAGTAGTCTTGGGTTCTAACCTGTTGCAT (site TAGTAGTCTAA),0.503
14,CAATGGTCTTGGGTTCTAACCTGTTGCCT (site CAATGGTCTAT),0.939
15,CAGCGGTCTTGGGTTCTAACCTGTTGCGA (site CAGCGGTCTTC),1.65
16,GAGTAGACTTGGGTTCTAACCTGTTGCTT (site GAGTAGTCTAA),1.22
17,GTGCCCGCTTGGGTTCTAACCTGTTGCAG (site GTGCCCGCTCT),0.961
18,ACTACTACTTGGGTTCTAACCTGTTGCCA (site GGTACTACTTG),0.433
19,GAGTTCCCTTGGGTTCTAACCTGTTGCGT (site GAGTTTCCTAC),0.0134
20,GTACAGCCTTGGGTTCTAACCTGTTGCCT (site GTACAGCCTAG),1.35
21,GGTCCTACTTGGGTTCTAACCTGTTGCCT (site GGTCCTACTAG),0.355
22,TCCAAGCCTTGGGTTCTAACCTGTTGCAG (site TCCAAACCTCT),0.694

row,Sequence,recombinant barcode read abundance (log10)
1,CACGGAACTTGGGTTCTAACCTGTTGCCT (site CACGGAACTAG),1.82
2,TCAGGTACTTGGGTTCTAACCTGTTGCCT (site TCAGGTACTAG),0.163
3,TGGCGCTCTTGGGTTCTAACCTGTTGCCT (site TGCCGCTCTAG),0
4,GGAGAACCTTGGGTTCTAACCTGTTGCCT (site CGAGAACCTAG),0.492
5,GTTCGAGCTTGGGTTCTAACCTGTTGCCT (site GTTAGAGCTAG),0.276
6,CTCCGGTCTTGGGTTCTAACCTGTTGCTT (site CACGGGTCTAA),0.22
7,GGTGCTCCTTGGGTTCTAACCTGTTGCAA (site GGTGCTCCTGT),0.0326
8,AAGGAACCTTGGGTTCTAACCTGTTGCCT (site AAGGAACCTAG),2.59
9,CTTGAGCCTTGGGTTCTAACCTGTTGCGT (site GTTGAGTCTAC),0.0339
10,GGACAATCTTGGGTTCTAACCTGTTGCCT (site GGACGATCTAG),0.376
11,TAGTAGTCTTGGGTTCTAACCTGTTGCAT (site TAGTAGTCTAC),1.14
12,GTTACCTCTTGGGTTCTAACCTGTTGCCT (site GTTACCTCTAG),0.859
13,TAGGCGCCTTGGGTTCTAACCTGTTGCAT (site TAGGCGCCTAA),4.17
14,TCCGCTCCTTGGGTTCTAACCTGTTGCCT (site TCCGCTCCTAG),0.323
15,GTCCCTCCTTGGGTTCTAACCTGTTGCGT (site GTCCCTCCTAA),0.0918
16,CCTGGGACTTGGGTTCTAACCTGTTGCGG (site CCTGGGACTTC),0.474
17,ACAACGACTTGGGTTCTAACCTGTTGCCT (site ACAACGACTAG),0.689
18,TTCAAAACTTGGGTTCTAACCTGTTGCCT (site TTCAAACCTAG),0.0651
19,CAGGCGTCTTGGGTTCTAACCTGTTGCCT (site CAGGCGCCTAG),0.289
20,CGCTTACCTTGGGTTCTAACCTGTTGCCT (site AGCTTACCTAG),0.143
